Measured values as given in BindingDB's records for patent US20240109915 (Pfizer, 2024).

Target: Acetyl-CoA carboxylase 1 (Homo sapiens, UniProt Q13085)
Experiment: Inhibition of the Activity of ACC1
Protocol: The direct inhibition of ACC1 for the compounds of the present invention was determined using preparations of recombinant human ACC1 (rhACC1) (SEQ ID NO. 1). Preparation of rhACC1: Two liters of SF9 cells, infected with recombinant baculovirus containing full length human ACC1 cDNA, were suspended in ice-cold lysis buffer (25 mM Tris, pH 7.5; 150 mM NaCl; 10% glycerol; 5 mM imidazole (EMD Bioscience; Gibbstown, NJ); 2 mM TCEP (BioVectra; Charlottetown, Canada); Benzonase nuclease (10000 U/100 g cell paste; Novagen; Madison, WI); EDTA-free protease inhibitor cocktail (1 tab/50 ml; Roche Diagnostics; Mannheim, Germany). Cells were lysed by 3 cycles of freeze-thaw and centrifuged at 40,000×g for 40 minutes (4° C.). Supernatant was directly loaded onto a HisTrap FF crude column (GE Healthcare; Piscataway, NJ) and eluted with an imidazole gradient up to 0.5 M over 20 column volumes (CV). ACC1-containing fractions were pooled and diluted 1:5 with 25 mM Tris, pH 7.5, 2 mM TCEP, 10% glycerol and direct loaded onto a CaptoQ (GE Healthcare) column and eluted with an NaCl gradient up to 1 M over 20 CV's. Phosphate groups were removed from purified ACC1 by incubation with lambda phosphatase (100 U/10 μM target protein; New England Biolabs; Beverly, MA) for 14 hours at 4° C.; okadaic acid was added (1 μM final concentration; Roche Diagnostics) to inhibit the phosphatase. […]

SMILES	IC50 [nM]
Cc1nn(C)c2c(Cl)cc(C(=O)N3CCC4(CC3)CC(=O)c3nc(C(C)(C)C)sc3C4)cc12 [US20240109915, Example 84]	92.6
Cn1ncc2c(Cl)cc(C(=O)N3CCC4(CC3)CC(=O)c3nc(C(C)(C)C)sc3C4)cc21 [US20240109915, Example 73]	22.9
